{"source": "paper PMC9214036", "about": "“Design and Synthesis of Novel PRMT1 Inhibitors and Investigation of Their Effects on the Migration of Cancer Cell” (Frontiers in Chemistry, 2022)", "key": {"[1]": {"biological_target": "PRMT1 (Homo sapiens, UniProt Q99873)", "sequence (Q99873 whole entry)": "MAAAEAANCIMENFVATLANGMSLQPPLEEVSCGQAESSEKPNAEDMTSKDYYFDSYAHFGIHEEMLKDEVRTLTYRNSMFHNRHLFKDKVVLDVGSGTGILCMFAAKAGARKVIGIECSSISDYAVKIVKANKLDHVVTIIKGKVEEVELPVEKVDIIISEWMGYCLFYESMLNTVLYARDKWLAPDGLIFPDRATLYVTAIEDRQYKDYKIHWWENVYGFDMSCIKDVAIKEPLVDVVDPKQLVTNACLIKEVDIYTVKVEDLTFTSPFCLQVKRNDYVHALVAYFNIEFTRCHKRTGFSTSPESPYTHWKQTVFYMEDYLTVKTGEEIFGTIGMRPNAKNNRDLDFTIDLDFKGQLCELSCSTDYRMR", "assay": "Radioactive PRMT1 methylation inhibition assay ([3H]-SAM, biotinylated histone H4 peptide)", "format": "biochemical", "conditions": "for inhibition at 10 µM: compound at 10 μM, read-out: % Inhibition of PRMT1 (at 10 μM); for IC50: radioactive methylation assay, read-out: IC50 (μM) against PRMT1", "experimental": "A series of 2,5-substituted furan and 2,4-substituted thiazole derivatives were synthesized and screened for their inhibitory effects on PRMT1 by using the radioactive PRMT1 methylation inhibition assay, which measured the amount of methyl groups that transferred from [^3H]-SAM to a biotinylated histone H4 peptide [ac-[…](Biotin)] (Tables 1–3).\nThe enzyme inhibitory activities and selectivity were measured by the radioisotope assay and AlphaLISA assay in ShangHai Chempartner Co., Ltd., according to the standard protocol. […] After 250 nL of compound solutions were added to the assay plate, 15 μl of PRMT1 enzyme solution or ×1 assay buffer for negative control was transferred to each well of prepared compound stock plates and the whole system (the final concentration of PRMT1 was 0.5 nM or 2 nM in the system) was incubated for 15 min at room temperature. […] Afterward, the reaction was stopped with the addition of 5 μl cold SAM solution to each well. Then, 25 μl volume per well was transferred to a Flashplate from the assay plate and incubated for a minimum of 1 h at room temperature. Finally, the Flashplate was washed with dH2O and 0.1% Tween-20 three times and then the reading plate in Microbeta using the program ^3H-Flashplate. The data were analyzed in GraphPad Prism 5 to obtain IC50 values."}}, "note": "Structures can show the parent of a compound that is named as a salt.", "data": [{"smiles": "CNCCN(C)Cc1ccc(-c2ccc(C(N)=O)cc2)o1", "note": "(as salt: hydrochloride) [Compound 1a, N′-[5-(4-Formamide-phen-1-yl)-furan-2-yl-methyl]-N,N′-dimethylethylenediamine Hydrochloride]", "values": [{"measurement": "melting point", "value": "212.2 to 214.6", "unit": "°C"}]}, {"smiles": "CNCCN(C)Cc1ccc(-c2ccc(C(=O)NN)cc2)o1", "note": "(as salt: hydrochloride) [Compound 1b, N′-[5-(4-Formylhydrazide-phen-1-yl)-furan-2-yl-methyl]-N,N′-dimethylethylenediamine Hydrochloride]", "values": [{"measurement": "melting point", "value": "246.2 to 246.9", "unit": "°C"}]}, {"smiles": "CNCCN(C)Cc1ccc(-c2ccc(C(N)=NO)cc2)o1", "note": "(as salt: hydrochloride) [Compound 1e, N′-[5-(4-N-Hydroxyamidino-phen-1-yl)-furan-2-yl-meth-yl]-N,N′-dimethylethylenediamine Hydrochloride]", "values": [{"measurement": "melting point", "value": "231.2 to 232.8", "unit": "°C"}]}, {"smiles": "CNCCN(C)Cc1ccc(-c2ccc(C(N)=NO)c(F)c2)o1", "note": "(as salt: hydrochloride) [Compound 1f, N′-[5-(3-Fluoro-4-N-hydroxyamidino-phen-1-yl)-furan-2-yl-methyl]-N,N′-dimethylethylenediamine Hydrochloride]", "values": [{"measurement": "melting point", "value": "216.8 to 218.6", "unit": "°C"}]}, {"smiles": "CNCCN(C)Cc1ccc(-c2cccc(C(N)=NO)c2)o1", "note": "(as salt: hydrochloride) [Compound 1g, N′-[5-(3-N-Hydroxyamidino-phen-1-yl)-furan-2-yl-methyl]-N,N′-dimethylethylenediamine Hydrochloride]", "values": [{"measurement": "melting point", "value": "60.8 to 63.2", "unit": "°C"}]}, {"smiles": "CNCCN(C)Cc1ccc(-c2ccc(C(=N)N)c(F)c2)o1", "note": "(as salt: hydrochloride) [Compound 1i, N′-[5-(3-Fluoro-4-amidino-phen-1-yl)-furan-2-yl-methyl]-N,N′-dimethylethylenediamine Hydrochloride]", "values": [{"measurement": "melting point", "value": "156.5 to 159.2", "unit": "°C"}]}, {"smiles": "CNCCN(C)Cc1ccc(-c2ccc(Cl)c(C(=N)N)c2)o1", "note": "(as salt: hydrochloride) [Compound 1k, N′-[5-(3-Amidino-4-chloro-phen-1-yl)-furan-2-yl-methyl]-N,N′-dimethylethylenediamine Hydrochloride]", "values": [{"measurement": "melting point", "value": "223 to 225", "unit": "°C"}]}, {"smiles": "CNCCN(C)Cc1ccc(-c2ccc(C(N)=O)cc2)o1", "note": "[Compound 1a, N′-[5-(4-Formamide-phen-1-yl)-furan-2-yl-methyl]-N,N′-dimethylethylenediamine Hydrochloride]", "values": [{"measurement": "inhibition at 10 µM", "setting": "[1]", "value": "10.6 ± 2.24", "unit": "%"}]}, {"smiles": "CNCCN(C)Cc1ccc(-c2ccc(C(=O)NN)cc2)o1", "note": "[Compound 1b, N′-[5-(4-Formylhydrazide-phen-1-yl)-furan-2-yl-methyl]-N,N′-dimethylethylenediamine Hydrochloride]", "values": [{"measurement": "inhibition at 10 µM", "setting": "[1]", "value": "48 ± 0.02", "unit": "%"}]}, {"smiles": "CNCCN(C)Cc1ccc(-c2ccc(N)cc2)o1.Cl", "note": "[Compound 1c, N′-[5-(4-Aminophenyl)-furan-2-yl-methyl]-N,N′-dimeth-ylethylenediamine Hydrochloride]", "values": [{"measurement": "melting point", "value": "60.2 to 61.1", "unit": "°C"}, {"measurement": "inhibition at 10 µM", "setting": "[1]", "value": "50 ± 0.18", "unit": "%"}, {"measurement": "IC50", "setting": "[1]", "value": "21.4 ± 12.8", "unit": "µM"}]}, {"smiles": "CNCCN(C)Cc1ccc(-c2cccc(N)c2)o1.Cl", "note": "[Compound 1d, N′-[5-(3-Aminophenyl)-furan-2-yl-methyl]-N,N′-dimethylethylenediamine Hydrochloride]", "values": [{"measurement": "melting point", "value": "64.2 to 65.2", "unit": "°C"}, {"measurement": "inhibition at 10 µM", "setting": "[1]", "value": "35.99 ± 0.09", "unit": "%"}]}, {"smiles": "CNCCN(C)Cc1ccc(-c2ccc(C(N)=NO)cc2)o1", "note": "[Compound 1e, N′-[5-(4-N-Hydroxyamidino-phen-1-yl)-furan-2-yl-meth-yl]-N,N′-dimethylethylenediamine Hydrochloride]", "values": [{"measurement": "inhibition at 10 µM", "setting": "[1]", "value": 32, "unit": "%"}]}, {"smiles": "CNCCN(C)Cc1ccc(-c2ccc(C(N)=NO)c(F)c2)o1", "note": "[Compound 1f, N′-[5-(3-Fluoro-4-N-hydroxyamidino-phen-1-yl)-furan-2-yl-methyl]-N,N′-dimethylethylenediamine Hydrochloride]", "values": [{"measurement": "inhibition at 10 µM", "setting": "[1]", "value": "35.97 ± 0.2", "unit": "%"}]}, {"smiles": "CNCCN(C)Cc1ccc(-c2cccc(C(N)=NO)c2)o1", "note": "[Compound 1g, N′-[5-(3-N-Hydroxyamidino-phen-1-yl)-furan-2-yl-methyl]-N,N′-dimethylethylenediamine Hydrochloride]", "values": [{"measurement": "inhibition at 10 µM", "setting": "[1]", "value": "39.98 ± 0.19", "unit": "%"}]}, {"smiles": "CNCCN(C)Cc1ccc(-c2ccc(C(=N)N)c(F)c2)o1", "note": "[Compound 1i, N′-[5-(3-Fluoro-4-amidino-phen-1-yl)-furan-2-yl-methyl]-N,N′-dimethylethylenediamine Hydrochloride]", "values": [{"measurement": "inhibition at 10 µM", "setting": "[1]", "value": "68 ± 0.02", "unit": "%"}, {"measurement": "IC50", "setting": "[1]", "value": "4.42 ± 0.63", "unit": "µM"}]}, {"smiles": "CNCCN(C)Cc1ccc(-c2ccc(Cl)c(C(=N)N)c2)o1", "note": "[Compound 1k, N′-[5-(3-Amidino-4-chloro-phen-1-yl)-furan-2-yl-methyl]-N,N′-dimethylethylenediamine Hydrochloride]", "values": [{"measurement": "inhibition at 10 µM", "setting": "[1]", "value": "76.5 ± 0.01", "unit": "%"}, {"measurement": "IC50", "setting": "[1]", "value": "2.5 ± 0.91", "unit": "µM"}]}, {"smiles": "CNCCN(C)Cc1ccc(-c2ccc(C(=N)N)nc2)o1.Cl", "note": "[Compound 1l, N′-[5-(2-Amidino-5-pyridyl)furan-2-yl-methyl]-N,N′-dimethylethylenediamine Hydrochloride]", "values": [{"measurement": "melting point", "value": "75.8 to 78.2", "unit": "°C"}, {"measurement": "inhibition at 10 µM", "setting": "[1]", "value": "92.12 ± 0.28", "unit": "%"}, {"measurement": "PRMT1 IC50 compared with DB75", "setting": "[1]; fold weaker than DB75", "value": "four times weaker than DB75"}, {"measurement": "PRMT1 IC50 compared with SAH", "setting": "[1]; fold weaker than SAH", "value": "about two times weaker than SAH"}, {"measurement": "IC50", "setting": "[1]", "value": "1.29 ± 0.12", "unit": "µM"}]}, {"smiles": "CNCCN(Cc1ccc(-c2ccc(C(=N)N)nc2)o1)C1CC1.Cl", "note": "[Compound 1m, N-Methyl-N′-[5-(2-amidino-5-pyridyl)furan-2-yl-methyl]-N′-cyclopropylethylenediamine Hydrochloride]", "values": [{"measurement": "melting point", "value": "95.9 to 98.3", "unit": "°C"}, {"measurement": "inhibition at 10 µM", "setting": "[1]", "value": "48 ± 0.02", "unit": "%"}, {"measurement": "IC50", "setting": "[1]", "value": "10.8 ± 1.3", "unit": "µM"}]}, {"smiles": "Cl.N=C(N)c1ccc(-c2ccc(CN3CCNCC3)o2)cn1", "note": "[Compound 1n, N′-[5-(2-Amidino-5-pyridyl)furan-2-yl-methyl]-piperazine Hydrochloride]", "values": [{"measurement": "melting point", "value": "197.7 to 199.3", "unit": "°C"}, {"measurement": "inhibition at 10 µM", "setting": "[1]", "value": "73.51 ± 0.06", "unit": "%"}, {"measurement": "IC50", "setting": "[1]", "value": "4.68 ± 0.26", "unit": "µM"}]}, {"smiles": "CN(CCN)Cc1ccc(-c2ccc(C(=N)N)nc2)o1.Cl", "note": "[Compound 1o, N′-[5-(2-Amidino-5-pyridyl)furan-2-yl-methyl]-N′-methylethylenediamine Hydrochloride]", "values": [{"measurement": "melting point", "value": "223.4 to 224.8", "unit": "°C"}, {"measurement": "inhibition at 10 µM", "setting": "[1]", "value": "89.02 ± 0.05", "unit": "%"}, {"measurement": "IC50", "setting": "[1]", "value": "2.41 ± 0.18", "unit": "µM"}]}, {"smiles": "N=C(N)c1ccc(-c2ccc(-c3ccc(C(=N)N)cc3)o2)cc1", "note": "[DB75, furamidine, reference compound]", "values": [{"measurement": "inhibition at 10 µM", "setting": "[1]", "value": "98.13 ± 0.27", "unit": "%"}, {"measurement": "IC50", "setting": "[1]", "value": "0.31 ± 0.04", "unit": "µM"}]}]}
